From PMC7927014, “Novel Small Molecule Hsp90/Cdc37 Interface Inhibitors Indirectly Target K-Ras-Signaling” (Cancers, 2021)
pIC50: −log10 of the molar value.

Assays:
[1] = tested on: MDA-MB-231 cells; assay: 2D cell proliferation (alamarBlue); assay type: cell-based; settings: Homo sapiens, MDA-MB-231, 72 h
Procedure: Per well, 500–700 cells were seeded in 96-well flat bottom culture plates in 100 µL. After 24 h, the cells were treated with 0.1% DMSO vehicle control or test compounds diluted in a medium using a 1:2 dilution-series, starting at 100 µM. The plates were further incubated for 72 h. The cell viability was measured after the addition of 10% alamarBlue reagent per well (cat. no. DAL1100, Thermo Fisher Scientific). The fluorescence intensity (excitation 560 nm and emission 590 nm) was measured after 4 h by the use of a H1 Hybrid Multi-Mode reader.

[2] = biological target: T1, Hsp90α (N-terminal) (Homo sapiens, UniProt P07900); assay: Hsp90 N-terminal ATP-binding site competition assay (FITC-geldanamycin fluorescence polarization)
T1 construct: purchased BPS Bioscience 50298
Procedure: The reaction was initiated by adding 35 ng/μL purified recombinant Hsp90α, and was incubated at RT with slow shaking for 2 h. All of the reactions were performed in a black, low binding NUNC microtiter plate, included in the kit, and the total reaction volume was 50 μL. The enzyme control was measured without the test compound, and the enzyme background control was measured without the test compound or Hsp90α. […] All of the controls and the blank contained 10% DMSO, as did all of the samples of the test compounds. All of the samples were analyzed as duplicates. […] The blank value was subtracted from all of the other values, and the fluorescence polarization was determined as:(1) mP = ((III − I⊥)/(III+ I⊥)) × 1000 where III is the intensity of the parallel, and I┴ the intensity of the perpendicular polarized light.

[3] = tested on: Hsp90, Hsp70; assay: Western blotting of Hsp90 and Hsp70 (heat shock response); assay type: cell-based; settings: Western blot, 24 h; four cancer cell lines; 17-AAG 2 μM
Procedure: (§1) The cells in the RIPA buffer were placed on ice for 20 min, and were then sonicated in ice cold water for 5 min. […] Equal amounts of protein were separated by 10% SDS-PAGE, and were then transferred onto a nitrocellulose membrane (cat. no. NBA 083C001EA, Protran) using a wet transfer system (Bio-Rad) or semidry Transferblot Turbo Transfer System (Bio-Rad). After the transfer, the membranes were blocked for 30 min in 5% skimmed milk dissolved in 1× TBST, and then incubated with 1:2000 primary antibodies in 5% BSA in TBST at 4 °C overnight.
(§2) The next day, the membranes were washed three times in TBST for 10 min, and then incubated with secondary antibodies (1:5000) diluted in 5% skimmed milk in TBST for 1 h at RT. […] All of the antigens and molecular weights in kDa are labelled next to the blots on the figures. Uncropped Western blot data are attached as Figure S6.

[4] = tested on: K-RasG12V nanoclustering; assay: K-RasG12V nanoclustering-FRET (FLIM-FRET) in HEK cells; assay type: cell-based; settings: 24 h, conglobatin A 2 μM, salinomycin 1.3 μM, 17-AAG 2 μM, CAY10585 10 μM, hit compounds indicated concentrations
Procedure: In total, 80,000 HEK cells were seeded in 12-well plates containing sterilized 16-mm coverslips and 1 mL medium. The next day, the cells were transfected using jetPRIME or FuGENE HD transfection reagent. For the donor fluorophore-only samples, the cells were transfected with 500 ng mGFP-tagged RasG12V plasmid. For the nanoclustering-FRET pair samples, the cells were transfected with both the donor and acceptor constructs, i.e., pmGFP- and pmCherry- RasG12V at a plasmid ratio of 1:3, respectively, and a total of 800 ng plasmids. The next day, the cells were treated with either 0.1% DMSO vehicle control or the indicated concentrations of compounds diluted in DMEM or RPMI medium for 24 h. For the gene silencing studies, the cells were transfected with the indicated amounts of siRNAs, together with the FRET pair constructs. The plasmids and siRNA were diluted in the same jetPRIME transfection buffer, followed by the addition of jetPRIME. […] The lifetime of the mGFP donor fluorophore was measured using a fluorescence microscope (Zeiss AXIO Observer D1) equipped with a fluorescence lifetime imaging attachment (Lambert Instruments), as described previously in detail. The apparent FRET efficiency (Eapp) was calculated as Eapp = (1 − τDA/τD) × 100%, with the measured fluorescence lifetimes τDA of the FRET sample and the τD of the donor-only sample.

[5] = biological target: T2, Hsp90/Cdc37 (Homo sapiens, UniProt P07900); assay: Hsp90/Cdc37 split Renilla luciferase assay, full length Hsp90 (cell lysate; IC50 and 20 μM validation); assay type: biochemical; settings: MolPort Screening-3, tested concentration of drugs 20 μM
T2 construct: The Hsp90/Cdc37 split Renilla luciferase assay using the full length Hsp90 for the compound screening was described previously; expressed in transfected cells; host or cells: HEK293 EBNA cells, cleared lysates
Procedure: (§3) In the second in silico screening of the FIMM database, we employed the four identified chemical scaffolds (Figure S2B) for the visual inspection of the FIMM compound library. […] All of the purchased compounds were validated in vitro at 20 μM using the split Renilla luciferase assay.
(§4) The Hsp90/Cdc37 split Renilla luciferase assay using the full length Hsp90 for the compound screening was described previously. […] After 48 h, the cells were trypsinized and washed with PBS. The harvested cells were lysed in 1 mL of the 1x lysis buffer provided in the Renilla Luciferase Reporter Assay System Kit from Promega (cat. E2820), and were incubated on ice for 10 min. The cell lysates were then cleared by centrifugation at 13,000× g for 1 min. […] After this, the screening/test compounds or DMSO—as indicated—were added to each well. In total, 5 µL NRL-Hsp90- or NRL-N-Hsp90-lysate was added to each well, one row at a time. Subsequently, the plate was incubated for 5 min at room temperature (RT). […] Just before the reading, 20 µL assay buffer containing 2× Renilla luciferase substrate (coelenterazine) was added. For the FIMM screening, sample wells were read on a PHERAstar plate reader (BMG LABTECH) at a gain level of 4000, after 10 s shaking, using a hypomorph of NRL-Hsp90. For the subsequent validations of the compounds, sample wells with the above-described assay constructs were read using a synergy H1 Hybrid Multi-Mode reader (BioTek) in the luminescence detection mode, as described previously in detail.

[6] = tested on: Hsp90/Cdc37; assay: FIMM screening in split Renilla luciferase assay with hypomorphic NRL-Hsp90 construct, 20 μM; assay type: biochemical
Procedure: as §3, §4

[7] = tested on: HIF-1α; assay: Western blotting of HIF-1α in nuclear extracts; assay type: cell-based; settings: Western blot of nuclear extracts, 24 h; K-RasG12V-transfected HEK and MDA-MB-231 cells; conglobatin A 5 or 10 μM, 17-AAG 2 μM
Procedure: as §1, §2

[8] = tested on: Gal3; assay: Western blotting of galectin-3; assay type: cell-based; settings: Western blot, 24 h; K-RasG12V-transfected HEK and MDA-MB-231 cells
Procedure: The cells were trypsinized, washed with PBS, and lysed in RIPA buffer (cat no. 89900, ThermoFisher Scientific) containing protease and phosphatase inhibitors (cat. no. A32959, ThermoFisher Scientific) and 1 mM phenylmethylsulfonyl fluoride (PMSF). The cells in the RIPA buffer were placed on ice for 20 min, and were then sonicated in ice cold water for 5 min. The lysates were centrifuged at 4 °C, and their protein was quantified using a BCA kit (cat. no. 23225, ThermoFisher Scientific). Equal amounts of protein were separated by 10% SDS-PAGE, and were then transferred onto a nitrocellulose membrane (cat. no. NBA 083C001EA, Protran) using a wet transfer system (Bio-Rad) or semidry Transferblot Turbo Transfer System (Bio-Rad). After the transfer, the membranes were blocked for 30 min in 5% skimmed milk dissolved in 1× TBST, and then incubated with 1:2000 primary antibodies in 5% BSA in TBST at 4 °C overnight. […]
The next day, the membranes were washed three times in TBST for 10 min, and then incubated with secondary antibodies (1:5000) diluted in 5% skimmed milk in TBST for 1 h at RT. […] The protein bands were detected with a ChemiDoc MP instrument (Bio-Rad) after treatment with an ECL reagent (cat. no. 170-5061, BioRad). […]

[9] = tested on: H-RasG12V nanoclustering; assay: H-RasG12V nanoclustering-FRET (FLIM-FRET) in HEK cells; assay type: cell-based; settings: 24 h, conglobatin A 2 μM, salinomycin 1.3 μM, CAY10585 10 μM
Procedure: In total, 80,000 HEK cells were seeded in 12-well plates containing sterilized 16-mm coverslips and 1 mL medium. The next day, the cells were transfected using jetPRIME or FuGENE HD transfection reagent. For the donor fluorophore-only samples, the cells were transfected with 500 ng mGFP-tagged RasG12V plasmid. For the nanoclustering-FRET pair samples, the cells were transfected with both the donor and acceptor constructs, i.e., pmGFP- and pmCherry- RasG12V at a plasmid ratio of 1:3, respectively, and a total of 800 ng plasmids. The next day, the cells were treated with either 0.1% DMSO vehicle control or the indicated concentrations of compounds diluted in DMEM or RPMI medium for 24 h. For the gene silencing studies, the cells were transfected with the indicated amounts of siRNAs, together with the FRET pair constructs. The plasmids and siRNA were diluted in the same jetPRIME transfection buffer, followed by the addition of jetPRIME. After 48 h of transfection, the cells were fixed in 4% paraformaldehyde for 10 to 15 min, before being mounted onto slides with Mowiol 4–88 (cat. no. 81381, Sigma-Aldrich). The lifetime of the mGFP donor fluorophore was measured using a fluorescence microscope (Zeiss AXIO Observer D1) equipped with a fluorescence lifetime imaging attachment (Lambert Instruments), as described previously in detail. The apparent FRET efficiency (Eapp) was calculated as Eapp = (1 − τDA/τD) × 100%, with the measured fluorescence lifetimes τDA of the FRET sample and the τD of the donor-only sample.

Row | SMILES | pIC50 [1] | competition with FITC-geldanamycin (ATP-pocket binding, polarization signal) [2] | induction of Hsp90 or Hsp70 expression (heat shock response) [3] | K-RasG12V nanoclustering-FRET [4] | normalized RLU ([5]; RLU normalized to DMSO (=1.00)) | Average RLU ([5]; average of 3 wells (DMSO 248028)) [RLU] | normalized RLU (FIMM Screening-1) ([6]; DMSO = 1.00) | normalized RLU (FIMM Screening-2, scaffold based) ([6]; DMSO = 1.00) | Average RLU (FIMM Screening-1) ([6]; mean of 3 wells, DMSO 50019) [RLU] | Average RLU (FIMM Screening-2, scaffold based) ([6]; mean of 3 wells, DMSO 51006) [RLU] | nuclear levels of HIF-1α [7] | Gal3 levels [8] | H-RasG12V nanoclustering-FRET [9]
1 | C=CCNC1=C2C[C@@H](C)C[C@H](OC)[C@H](O)[C@@H](C)/C=C(\C)[C@H](OC(N)=O)[C@@H](OC)/C=C\C=C(/C)C(=O)NC(=CC1=O)C2=O [17-AAG, 17-allylamino-17-demethoxy-geldanamycin, reference compound] | 6.00 | significantly reduced the signal | increase in Hsp90 and, in particular, Hsp70 | same selectivity | 0.91 | 225640 | 0.89 | 0.89 | 44367 | 45379 | decreased the nuclear levels of HIF-1α |  | 
2 | COC(=O)c1ccc(O)c(NC(=O)COc2ccc(C34CC5CC(CC(C5)C3)C4)cc2)c1 [CAY10585] |  |  |  | selectively decreased |  |  |  |  |  |  |  | decreased the Gal3 levels | not H-RasG12V nanoclustering-FRET
3 | CC[C@@H](C(=O)[C@@H](C)[C@@H](O)[C@H](C)[C@@H]1O[C@@H]([C@@H](CC)C(=O)O)CC[C@@H]1C)[C@H]1O[C@]2(C=C[C@@H](O)[C@]3(CC[C@@](C)([C@H]4CC[C@](O)(CC)[C@H](C)O4)O3)O2)[C@H](C)C[C@@H]1C [salinomycin] |  |  |  | blocks K-RasG12V- |  |  |  |  |  |  |  |  | not H-RasG12V-nanoclustering
